Where “and” joins values, the source holds several entries; their conditions need not be identical. Identical values can stand only once.
Tests used:
[1] = tested on: S. furcifera adults; assay: Y-tube olfactometer behavioral trials; format: in vivo, Sogatella furcifera; conditions: odorant 50 µL/L vs hexane
Summary of the method: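 Single S. furcifera adults (2 days post-emergence, starved 0.5 h) chose between odorant (100 µL of 50 µL/L on filter paper) and hexane control in a glass Y-tube, charcoal-filtered humidified air 300 mL/min per arm, 25 ± 1 °C, 50% RH. Choice scored if insect passed half an arm and stayed >1 min within 10 min; 45 insects per compound, chi-squared test.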

[2] = target: SfurOBP2 (Sogatella furcifera, UniProt V5T759); assay: biochemical; format: binding
Summary of the method: (§1)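 Fluorescence competitive binding used 2.0 µM SfurOBP and 2.0 µM 1-NPN reporter in 50 mM Tris-HCl, pH 7.4, with odorants at 2-20 µM. Fluorescence was read 2 min after adding the odorant (excitation 337 nm, emission 390-490 nm), in triplicate. Ki was calculated from IC50 as IC50/(1 + [1-NPN]/K1-NPN).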

[3] = target: SfurOBP11 (Sogatella furcifera, UniProt V5T6E3); assay: biochemical; format: binding
Summary of the method: as §1

[4] = target: SfurOBP3 (Sogatella furcifera, UniProt V5T818); assay: biochemical; format: binding; conditions: for Fluorescence competitive binding assay, fluorescence intensity: OBP3, three replicate columns
Summary of the method: as §1

[5] = target: SfurOBP1 (Sogatella furcifera, UniProt V5T8N5); assay: biochemical; format: binding; conditions: for Fluorescence competitive binding assay, fluorescence intensity: OBP1, three replicate columns
Summary of the method: as §1

SfurOBP3, sequence (V5T818 entry or part of it): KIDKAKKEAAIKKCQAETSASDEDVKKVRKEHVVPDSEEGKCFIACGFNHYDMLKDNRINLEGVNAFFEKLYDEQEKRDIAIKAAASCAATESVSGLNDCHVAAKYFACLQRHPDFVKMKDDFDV
SfurOBP11, sequence (V5T6E3 entry or part of it): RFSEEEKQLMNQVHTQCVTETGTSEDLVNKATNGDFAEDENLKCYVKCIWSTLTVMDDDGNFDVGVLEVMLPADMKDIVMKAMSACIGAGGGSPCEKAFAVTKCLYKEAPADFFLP
SfurOBP2, sequence (V5T759 entry or part of it): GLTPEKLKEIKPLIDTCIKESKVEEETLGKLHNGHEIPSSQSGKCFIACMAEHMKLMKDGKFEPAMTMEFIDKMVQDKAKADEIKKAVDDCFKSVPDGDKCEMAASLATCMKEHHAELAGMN
SfurOBP1, sequence (V5T8N5 entry or part of it): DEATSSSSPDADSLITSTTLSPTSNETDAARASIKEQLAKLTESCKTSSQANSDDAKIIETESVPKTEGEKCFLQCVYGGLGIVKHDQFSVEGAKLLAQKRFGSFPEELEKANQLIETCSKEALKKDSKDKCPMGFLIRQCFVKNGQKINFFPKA

CC(=O)c1ccccc1 [acetophenone]
behavioral response of S. furcifera (in words) [1]: strongly attracted | number of insects choosing hexane arm ([1]; adults): 11 | number of insects choosing volatilies arm ([1]; adults): 20 | number of insects failed (no choice) ([1]; adults): 9 | IC50 ([2]; SfurOBP2, protein and 1-NPN both 2.0 µM, competitor 2-20 µM, read-out: IC50): > 20 µM | Fluorescence competitive binding assay, OBP2 (raw fluorescence reading) ([2]; ligand concentration 2 (unit not given), replicate column 1 of 3): 18213 | Fluorescence competitive binding assay, OBP2 (raw fluorescence reading) ([2]; ligand concentration 2 (unit not given), replicate column 2 of 3): 17695 | Fluorescence competitive binding assay, OBP2 (raw fluorescence reading) ([2]; ligand concentration 2 (unit not given), replicate column 3 of 3): 18887 | Fluorescence competitive binding assay, OBP2 (raw fluorescence reading) ([2]; ligand concentration 4 (unit not given), replicate column 1 of 3): 18465 | Fluorescence competitive binding assay, OBP2 (raw fluorescence reading) ([2]; ligand concentration 4 (unit not given), replicate column 2 of 3): 18805 | Fluorescence competitive binding assay, OBP2 (raw fluorescence reading) ([2]; ligand concentration 4 (unit not given), replicate column 3 of 3): 18729 | Fluorescence competitive binding assay, OBP2 (raw fluorescence reading) ([2]; ligand concentration 6 (unit not given), replicate column 1 of 3): 17576 | Fluorescence competitive binding assay, OBP2 (raw fluorescence reading) ([2]; ligand concentration 6 (unit not given), replicate column 2 of 3): 17836 | Fluorescence competitive binding assay, OBP2 (raw fluorescence reading) ([2]; ligand concentration 6 (unit not given), replicate column 3 of 3): 18066 | Fluorescence competitive binding assay, OBP2 (raw fluorescence reading) ([2]; ligand concentration 8 (unit not given), replicate column 1 of 3): 15752 | Fluorescence competitive binding assay, OBP2 (raw fluorescence reading) ([2]; ligand concentration 8 (unit not given), replicate column 2 of 3): 18865 | Fluorescence competitive binding assay, OBP2 (raw fluorescence reading) ([2]; ligand concentration 8 (unit not given), replicate column 3 of 3): 17007 | Fluorescence competitive binding assay, OBP2 (raw fluorescence reading) ([2]; ligand concentration 10 (unit not given), replicate column 1 of 3): 16925 | Fluorescence competitive binding assay, OBP2 (raw fluorescence reading) ([2]; ligand concentration 10 (unit not given), replicate column 2 of 3): 17786 | Fluorescence competitive binding assay, OBP2 (raw fluorescence reading) ([2]; ligand concentration 10 (unit not given), replicate column 3 of 3): 17356 | Fluorescence competitive binding assay, OBP2 (raw fluorescence reading) ([2]; ligand concentration 12 (unit not given), replicate column 1 of 3): 16049 | Fluorescence competitive binding assay, OBP2 (raw fluorescence reading) ([2]; ligand concentration 12 (unit not given), replicate column 2 of 3): 16437 | Fluorescence competitive binding assay, OBP2 (raw fluorescence reading) ([2]; ligand concentration 12 (unit not given), replicate column 3 of 3): 16824 | Fluorescence competitive binding assay, OBP2 (raw fluorescence reading) ([2]; ligand concentration 14 (unit not given), replicate column 1 of 3): 15270 | Fluorescence competitive binding assay, OBP2 (raw fluorescence reading) ([2]; ligand concentration 14 (unit not given), replicate column 2 of 3): 15647 | Fluorescence competitive binding assay, OBP2 (raw fluorescence reading) ([2]; ligand concentration 14 (unit not given), replicate column 3 of 3): 14905 | Fluorescence competitive binding assay, OBP2 (raw fluorescence reading) ([2]; ligand concentration 16 (unit not given), replicate column 1 of 3): 15319 | Fluorescence competitive binding assay, OBP2 (raw fluorescence reading) ([2]; ligand concentration 16 (unit not given), replicate column 2 of 3): 14300 | Fluorescence competitive binding assay, OBP2 (raw fluorescence reading) ([2]; ligand concentration 16 (unit not given), replicate column 3 of 3): 16123 | Fluorescence competitive binding assay, OBP2 (raw fluorescence reading) ([2]; ligand concentration 18 (unit not given), replicate column 1 of 3): 15075 | Fluorescence competitive binding assay, OBP2 (raw fluorescence reading) ([2]; ligand concentration 18 (unit not given), replicate column 2 of 3): 15152 | Fluorescence competitive binding assay, OBP2 (raw fluorescence reading) ([2]; ligand concentration 18 (unit not given), replicate column 3 of 3): 15228 | Fluorescence competitive binding assay, OBP2 (raw fluorescence reading) ([2]; ligand concentration 20 (unit not given), replicate column 1 of 3): 14131 | Fluorescence competitive binding assay, OBP2 (raw fluorescence reading) ([2]; ligand concentration 20 (unit not given), replicate column 2 of 3): 14026 | Fluorescence competitive binding assay, OBP2 (raw fluorescence reading) ([2]; ligand concentration 20 (unit not given), replicate column 3 of 3): 13920 | IC50 ([3]; SfurOBP11, protein and 1-NPN both 2.0 µM, competitor 2-20 µM, read-out: IC50): > 20 µM | Fluorescence intensity, fluorescence competitive binding assay, OBP11 ([3]; ligand concentration 2, replicate 1): 26535 | Fluorescence intensity, fluorescence competitive binding assay, OBP11 ([3]; ligand concentration 2, replicate 2): 26162 | Fluorescence intensity, fluorescence competitive binding assay, OBP11 ([3]; ligand concentration 2, replicate 3): 26541 | Fluorescence intensity, fluorescence competitive binding assay, OBP11 ([3]; ligand concentration 4, replicate 1): 25394 | Fluorescence intensity, fluorescence competitive binding assay, OBP11 ([3]; ligand concentration 4, replicate 2): 26325 | Fluorescence intensity, fluorescence competitive binding assay, OBP11 ([3]; ligand concentration 4, replicate 3): 27262 | Fluorescence intensity, fluorescence competitive binding assay, OBP11 ([3]; ligand concentration 6, replicate 1): 26264 | Fluorescence intensity, fluorescence competitive binding assay, OBP11 ([3]; ligand concentration 6, replicate 2): 26035 | Fluorescence intensity, fluorescence competitive binding assay, OBP11 ([3]; ligand concentration 6, replicate 3): 26502 | Fluorescence intensity, fluorescence competitive binding assay, OBP11 ([3]; ligand concentration 8, replicate 1): 25045 | Fluorescence intensity, fluorescence competitive binding assay, OBP11 ([3]; ligand concentration 8, replicate 2): 25714 | Fluorescence intensity, fluorescence competitive binding assay, OBP11 ([3]; ligand concentration 8, replicate 3): 24376 | Fluorescence intensity, fluorescence competitive binding assay, OBP11 ([3]; ligand concentration 10, replicate 1): 24885 | Fluorescence intensity, fluorescence competitive binding assay, OBP11 ([3]; ligand concentration 10, replicate 2): 24226 | Fluorescence intensity, fluorescence competitive binding assay, OBP11 ([3]; ligand concentration 10, replicate 3): 23566 | Fluorescence intensity, fluorescence competitive binding assay, OBP11 ([3]; ligand concentration 12, replicate 1): 21957 | Fluorescence intensity, fluorescence competitive binding assay, OBP11 ([3]; ligand concentration 12, replicate 2): 22135 | Fluorescence intensity, fluorescence competitive binding assay, OBP11 ([3]; ligand concentration 12, replicate 3): 20925 | Fluorescence intensity, fluorescence competitive binding assay, OBP11 ([3]; ligand concentration 14, replicate 1): 23062 | Fluorescence intensity, fluorescence competitive binding assay, OBP11 ([3]; ligand concentration 14, replicate 2): 21821 | Fluorescence intensity, fluorescence competitive binding assay, OBP11 ([3]; ligand concentration 14, replicate 3): 20452 | Fluorescence intensity, fluorescence competitive binding assay, OBP11 ([3]; ligand concentration 16, replicate 1): 19007 | Fluorescence intensity, fluorescence competitive binding assay, OBP11 ([3]; ligand concentration 16, replicate 2): 19354 | Fluorescence intensity, fluorescence competitive binding assay, OBP11 ([3]; ligand concentration 16, replicate 3): 17450 | Fluorescence intensity, fluorescence competitive binding assay, OBP11 ([3]; ligand concentration 18, replicate 1): 21957 | Fluorescence intensity, fluorescence competitive binding assay, OBP11 ([3]; ligand concentration 18, replicate 2): 23680 | Fluorescence intensity, fluorescence competitive binding assay, OBP11 ([3]; ligand concentration 18, replicate 3): 21455 | Fluorescence intensity, fluorescence competitive binding assay, OBP11 ([3]; ligand concentration 20, replicate 1): 23354 | Fluorescence intensity, fluorescence competitive binding assay, OBP11 ([3]; ligand concentration 20, replicate 2): 26458 | Fluorescence intensity, fluorescence competitive binding assay, OBP11 ([3]; ligand concentration 20, replicate 3): 24921 | Fluorescence competitive binding assay, fluorescence intensity ([4]; ligand concentration 2): 34223 and 34200 and 33767 | Fluorescence competitive binding assay, fluorescence intensity ([4]; ligand concentration 4): 34565 and 34966 and 35111 | Fluorescence competitive binding assay, fluorescence intensity ([4]; ligand concentration 6): 33473 and 32986 and 33557 | Fluorescence competitive binding assay, fluorescence intensity ([4]; ligand concentration 8): 31804 and 31815 and 33904 | Fluorescence competitive binding assay, fluorescence intensity ([4]; ligand concentration 10): 31933 and 33856 and 32393 | Fluorescence competitive binding assay, fluorescence intensity ([4]; ligand concentration 12): 28357 and 30958 and 31303 | Fluorescence competitive binding assay, fluorescence intensity ([4]; ligand concentration 14): 30291 and 29441 and 31149 | Fluorescence competitive binding assay, fluorescence intensity ([4]; ligand concentration 16): 26096 and 27512 and 26789 | Fluorescence competitive binding assay, fluorescence intensity ([4]; ligand concentration 18): 36577 and 32045 and 32081 | Fluorescence competitive binding assay, fluorescence intensity ([4]; ligand concentration 20): 29304 and 29350 and 25941 | binding affinity to SfurOBP3 (in words) ([4]; SfurOBP3): high binding affinities | IC50 ([4]; SfurOBP3, protein and 1-NPN both 2.0 µM, competitor 2-20 µM, read-out: IC50): 17.4 µM | Fluorescence competitive binding assay, fluorescence intensity ([5]; ligand concentration 2 (μM)): 5574 and 5550 and 5238 | Fluorescence competitive binding assay, fluorescence intensity ([5]; ligand concentration 4 (μM)): 4710 and 5782 and 5020 | Fluorescence competitive binding assay, fluorescence intensity ([5]; ligand concentration 6 (μM)): 5308 and 5201 and 5270 | Fluorescence competitive binding assay, fluorescence intensity ([5]; ligand concentration 8 (μM)): 4498 and 4902 and 5186 | Fluorescence competitive binding assay, fluorescence intensity ([5]; ligand concentration 10 (μM)): 4649 and 5445 and 5409 | Fluorescence competitive binding assay, fluorescence intensity ([5]; ligand concentration 12 (μM)): 5039 and 5542 and 4835 | Fluorescence competitive binding assay, fluorescence intensity ([5]; ligand concentration 14 (μM)): 5190 and 5205 and 6069 | Fluorescence competitive binding assay, fluorescence intensity ([5]; ligand concentration 16 (μM)): 4320 and 5267 and 4703 | Fluorescence competitive binding assay, fluorescence intensity ([5]; ligand concentration 18 (μM)): 5435 and 5537 and 6009 | Fluorescence competitive binding assay, fluorescence intensity ([5]; ligand concentration 20 (μM)): 6807 and 4924 and 6337 | IC50 ([5]; SfurOBP1, protein and 1-NPN both 2.0 µM, competitor 2-20 µM, read-out: IC50): > 20 µM
